{"source": "patent US8217022B2", "about": "“Analogues of 1,3-bis(4-nitrophenyl)triazenes, their pharmaceutically acceptable salts and N-acyl derivatives for tumour treatment” (Rudjer Boskovic Institute, priority 2009, dated 2012)", "key": {"[1]": {"test_system": "human cervical carcinoma HeLa cells", "test": "Cytotoxicity by spectrophotometric MTT method on HeLa cells", "assay_type": "cell-based", "conditions": "for IC50: MTT", "experimental": "(§1) The human cervical carcinoma HeLa cells were used as a model for testing the cytotoxicity of new compounds. Said cells grow as single-layer culture in nutrient Dulbecco's modified Eagle's medium (DMEM, Gibco Life Technologies, Grand Island, USA) with 10% of fetal bovine serum (Gibco) and antibiotics (penicillin 100 U, streptomicine 0.1 mg, Sigma Chem. Co., St. Louis, USA). They were grown in thermostat at 37° C. with 5% CO2 in a humidified atmosphere in plastic cell culture flasks (BD Falcon, Germany).\nThe compounds were dissolved in dimethyl sulfoxide (Merck, Darmstadt, Germany) in concentrations of 20-120 mM (depending on the compound) and stored in aliquots at −20° C. as stock solutions. The stock solutions were diluted to the appropriate concentrations just before the experiments.\n(§2) The cytotoxicity of new compounds was determined by spectrophotometric MTT method (Michisch et al., Urol Res 18(990)131). It is a colorimetric method based on the ability of living cells to reduce the yellow tetrazolium salt 3-(4,5-dimethylthiazol-2-yl)-2,5-diphenyltetrazolium bromide) (MTT; Merck) to violet formazane crystals using mitochondrial dehydrogenase and cytochrome b and c. The crystals were dissolved in dimethyl sulfoxide (DMSO), followed by spectrophotometric measurement of their absorbance at 545 nm.\n(§3) Cells were seeded in 96-well microtitration plates (BD Falcon) (2.5×10^3/180 μl), and incubated overnight at temperature of 37° C. to allow the cells to attach to the growth medium. Next day the compounds were added to the growth medium in a wide range of concentrations, from 0.05 to 100 μM (each concentration in quadruplicate). After 72 hours, the samples were coloured with the MTT dye and left for 3 hours in the thermostat. Formed crystals were dissolved in dimethyl sulfoxide and the absorbance of each sample was measured at 545 nm. The survival of cells was calculated according to the formula: […]\nThe experiments were repeated 2-3 times. […] IC50 values were read from the curve. IC50 is the concentration of a compound that reduces the survival of treated cells to 50%.\nThe cytotoxicity of the new compounds was determined on human cervical carcinoma HeLa cells by the spectrophotometric MTT method. It is expressed as IC50 value, i.e. as the concentration of a compound that reduces cell survival to 50%."}, "[2]": {"test_system": "mammalian cells", "conditions": "from publication, read-out: cytotoxicity IC50; cited from earlier work"}, "[3]": {"test_system": "glioblastoma A1235 cells", "test": "Cytotoxicity by MTT method on A1235 cells", "assay_type": "cell-based", "conditions": "Table 2"}, "[4]": {"test_system": "laryngeal carcinoma HEp-2 cells", "test": "Cytotoxicity by MTT method on HEp-2 cells", "assay_type": "cell-based"}, "[5]": {"test_system": "rhabdomiosarcoma RD cells", "test": "Cytotoxicity by MTT method on RD cells", "assay_type": "cell-based", "conditions": "Table 2"}, "[6]": {"test_system": "human ovarian adenocarcinoma OVCAR cells", "test": "Cytotoxicity by MTT method on OVCAR cells", "assay_type": "cell-based", "conditions": "Table 2"}, "[7]": {"test_system": "human embryonic kidney HEK 293 cells", "test": "Cytotoxicity by MTT method on HEK 293 cells", "assay_type": "cell-based", "conditions": "HEK 293, MTT; Table 2"}, "[8]": {"test_system": "normal human cells, keratinocytes", "test": "Cytotoxicity on keratinocytes, survival by crystal violet dye", "assay_type": "cell-based", "conditions": "Table 2", "experimental": "as §1\nThe compounds were dissolved in dimethyl sulfoxide (Merck, Darmstadt, Germany) in concentrations of 20-120 mM (depending on the compound) and stored in aliquots at −20° C. as stock solutions. […]\nCells were seeded in 96-well microtitration plates (BD Falcon) (2.5×10^3/180 μl), and incubated overnight at temperature of 37° C. to allow the cells to attach to the growth medium. […] Formed crystals were dissolved in dimethyl sulfoxide and the absorbance of each sample was measured at 545 nm. The survival of cells was calculated according to the formula: […]\n(§4) The experiments were repeated 2-3 times. […] IC50 values were read from the curve. […]\nThe cytotoxicity was determined by spectrophotometric MTT method (except for keratinocytes, which have low metabolic activity, so their survival was determined by addition of crystal violet dye) and expressed as IC50."}, "[9]": {"test_system": "HeLa CK cells resistant to cisplatin and cross-resistant to vincristine and methotrexate", "test": "Cytotoxicity by MTT method on HeLa CK resistant sub-line", "assay_type": "cell-based, human", "conditions": "Table 3", "experimental": "as §2\nas §3, with “After 72 hours, the samples were coloured with the MTT dye and left for 3 hours in the thermostat.” left out\nas §4\nIt was tested on parental cervical carcinoma HeLa cells and their sub-line HeLa CK cells resistant to cisplatin and cross-resistant to vincristine and methotrexate (Osmak and Eljuga, Res Exp Med 193(1993) 389). […] Cytotoxicity was determined by spectrophotometric MTT method and expressed as IC50."}, "[10]": {"test_system": "CA3 cells resistant to cisplatin and cross-resistant to vincristine, methotrexate and mitomycin C", "test": "Cytotoxicity by MTT method on CA3 resistant sub-line", "assay_type": "cell-based", "conditions": "Table 3"}, "[11]": {"conditions": "HeLa cells, 72 hours, Table 1, read-out: Cytotoxicity (IC50 μM)"}}, "note": "Read-outs that look alike come from different tables or passages of the source.", "data": [{"smiles": "O=[N+]([O-])c1ccc(N=NNc2ccc([N+](=O)[O-])cc2)cc1", "note": "[1,3-bis(4-nitrophenyl)triazene]", "values": [{"measurement": "biological activity", "setting": "[1]; tested during the testing of the compounds of the invention", "value": "did not show any biological activity"}]}, {"smiles": "N=C(N)c1ccc(N=NNc2ccc(C(=N)N)cc2)cc1", "note": "[berenil, Berenil]", "values": [{"measurement": "IC50", "setting": "[2]", "value": "> 100", "unit": "µM"}]}, {"smiles": "O=[N+]([O-])c1ccc(N=NNc2ccc([N+](=O)[O-])cc2Cl)c(Cl)c1", "note": "[VM-102]", "values": [{"measurement": "IC50", "setting": "[1]; [11]", "value": 2.6, "unit": "µM"}]}, {"smiles": "O=[N+]([O-])c1ccc(N=NNc2ccc([N+](=O)[O-])cc2Br)c(Br)c1", "note": "[VM-97]", "values": [{"measurement": "IC50", "setting": "[1]; [11]", "value": 0.45, "unit": "µM"}]}, {"smiles": "O=[N+]([O-])c1ccc(N=NNc2ccc([N+](=O)[O-])cc2Br)c(Br)c1", "note": "[VM-94c]", "values": [{"measurement": "IC50", "setting": "[1]; HeLa cells, 72 hours, Table 1, listed as VM 94c, read-out: Cytotoxicity (IC50 μM)", "value": 3.65, "unit": "µM"}, {"measurement": "IC50", "setting": "[1]; HeLa parental cells, Table 3, read-out: IC50", "value": 3.4, "unit": "µM"}, {"measurement": "IC50", "setting": "[1]; HeLa, Table 2, read-out: IC50", "value": 3.65, "unit": "µM"}, {"measurement": "IC50", "setting": "[3]", "value": 5.45, "unit": "µM"}, {"measurement": "IC50", "setting": "[4]; HEp2 parental cells, MTT, Table 3", "value": 5.5, "unit": "µM"}, {"measurement": "IC50", "setting": "[4]; HEp-2, MTT, Table 2", "value": 5.5, "unit": "µM"}, {"measurement": "IC50", "setting": "[5]", "value": 5.1, "unit": "µM"}, {"measurement": "IC50", "setting": "[6]", "value": 3.4, "unit": "µM"}, {"measurement": "IC50", "setting": "[7]", "value": 7.9, "unit": "µM"}, {"measurement": "IC50", "setting": "[8]", "value": 9.45, "unit": "µM"}, {"measurement": "IC50", "setting": "[9]", "value": 3.9, "unit": "µM"}, {"measurement": "IC50", "setting": "[10]", "value": 7.2, "unit": "µM"}]}]}
